Experimental data taken from patent US20160067295A1, “WALNUT EXTRACTS FOR NUTRACEUTICAL APPLICATIONS” (priority 2009, published 2016).

Tests used:
[1] = target: human blood (acetyl) cholinesterase (Homo sapiens, UniProt P22303); conditions: for inhibition of acetyl cholinesterase (in words): 1 mg Phosphatidylcholine per ml test solution, FIG. 4, FIG. 5; for % activity of AchE: remaining activity within 5 minutes of incubation; for % activity of AchE / % inhibited part of activity of AchE: 1 mg/ml test solution; for % inhibited part of activity of AchE: within 5 minutes of incubation
human blood (acetyl) cholinesterase, sequence (P22303 32-617 isoform P22303-2 limits assumed): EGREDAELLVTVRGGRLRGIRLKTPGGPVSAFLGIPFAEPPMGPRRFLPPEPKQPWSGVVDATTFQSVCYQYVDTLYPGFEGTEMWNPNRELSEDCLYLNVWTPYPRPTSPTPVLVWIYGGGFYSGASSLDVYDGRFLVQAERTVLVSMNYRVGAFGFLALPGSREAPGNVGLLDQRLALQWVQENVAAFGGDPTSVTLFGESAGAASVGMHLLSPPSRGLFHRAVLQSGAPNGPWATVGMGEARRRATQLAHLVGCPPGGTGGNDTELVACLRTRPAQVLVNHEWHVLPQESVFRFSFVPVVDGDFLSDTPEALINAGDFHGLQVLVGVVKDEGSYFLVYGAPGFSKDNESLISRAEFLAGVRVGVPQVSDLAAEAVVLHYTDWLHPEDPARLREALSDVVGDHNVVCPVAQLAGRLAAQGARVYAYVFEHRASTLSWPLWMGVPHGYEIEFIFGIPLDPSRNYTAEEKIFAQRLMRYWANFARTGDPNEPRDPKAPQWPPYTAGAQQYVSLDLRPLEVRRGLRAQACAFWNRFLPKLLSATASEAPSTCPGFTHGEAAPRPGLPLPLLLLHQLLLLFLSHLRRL

[2] = target: T1, Amyloid [A]β1-40 aggregates (Homo sapiens, UniProt P05067); test: Defibrillization assay: dissolution of already formed amyloid Aβ-aggregates (Thioflavin T fluorescence); format: biochemical; conditions: 12 mg PC/ml test assay for walnut extracts, 12 mg PC Soy or PS Soy/ml; FIG. 3
T1 construct: Amyloid [A] β1-40 (Sigma-Aldrich, A 1075); purchased Sigma-Aldrich A 1075
T1 sequence (P05067 672-711 limits assumed): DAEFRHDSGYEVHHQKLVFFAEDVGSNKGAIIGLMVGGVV
Protocol: In this example, the highest concentrations of the walnut extracts (12 mg PC/ml test assay for the walnut extracts, 12 mg PC Soy or PS Soy/ml) were evaluated for their ability to reverse an already formed aggregate of amyloid-β.
Defibrillization efficacy is indicative for treatment of Alzheimer disease.
Dissolution of amyloid Aβ-aggregates by ES2008-021 and ES2008-022-Defibrillization assay
In a further extension of the test system, the above samples were evaluated for their ability to reverse an already formed aggregate of amyloid-β. Defibrillization efficacy is indicative for curing of Alzheimer disease.
Dissolution of amyloid Aβ-aggregates was induced by incubation with walnut extract. At each concentration of walnut extract (0.625, 1.25, 2.5, 5.0 or 7.5 μl ES2008-022 or 0.625, 1.25, 2.5, 5.0 or 7.5 μl from a stock solution containing 125 mg ES2008-021/ml) three samples were incubated and evaluated. […]
After 3 days each sample is mixed with 2 μM ([…]) Thioflavin T and 950 μl glycine/NaOH buffer (50 mM glycine, pH=9.0). Fluorescence was measured at ex 435 nm/em 485 nm.
Subtract fluorescence intensity for the corresponding “reagent blank samples” from each “active sample”. Compare the resulting fluorescence intensity with the fluorescence intensity measured for the control sample. […]

Substance	inhibition of acetyl cholinesterase (in words) [1]	% activity of AchE [1] [%]	% inhibited part of activity of AchE [1] [%]	defibrillization efficacy (in words) [2]
phosphatidylcholine [PC Soy Bean]	almost inactive	88.2	11.8	less potent in defibrillization
phosphatidylserine [PS Soy Bean]	almost inactive	94.0	6.0	less potent in defibrillization
